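Compound exposure: 48 hours, 5 concentrations, 96-well plates. At the GI50, growth is halved. TGI: concentration producing complete growth inhibition.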
Tests used:
Assay in all cases: NCI-60 cell line screen, 48 h
MCF7 breast = tested on: MCF7 breast
HL-60(TB) leukemia = tested on: HL-60(TB) leukemia
UACC-62 melanoma = tested on: UACC-62 melanoma
HCT-15 colon = tested on: HCT-15 colon
SN12C renal = tested on: SN12C renal
OVCAR-5 ovarian = tested on: OVCAR-5 ovarian
EKVX NSCLC = tested on: EKVX NSCLC
DU-145 prostate = tested on: DU-145 prostate
UO-31 renal = tested on: UO-31 renal
SNB-75 CNS = tested on: SNB-75 CNS
SF-539 CNS = tested on: SF-539 CNS
K-562 leukemia = tested on: K-562 leukemia
SNB-19 CNS = tested on: SNB-19 CNS
SK-MEL-28 melanoma = tested on: SK-MEL-28 melanoma
COLO 205 colon = tested on: COLO 205 colon
HOP-92 NSCLC = tested on: HOP-92 NSCLC
SK-MEL-5 melanoma = tested on: SK-MEL-5 melanoma
U251 CNS = tested on: U251 CNS
786-0 renal = tested on: 786-0 renal
PC-3 prostate = tested on: PC-3 prostate
NCI-H460 lung = tested on: NCI-H460 lung
SF-268 CNS = tested on: SF-268 CNS
A549 NSCLC = tested on: A549 NSCLC
SK-OV-3 ovarian = tested on: SK-OV-3 ovarian
IGROV1 ovarian = tested on: IGROV1 ovarian
HCC-2998 colon = tested on: HCC-2998 colon
HOP-62 NSCLC = tested on: HOP-62 NSCLC
MDA-MB-231 breast = tested on: MDA-MB-231 breast
OVCAR-8 ovarian = tested on: OVCAR-8 ovarian
SW-620 colon = tested on: SW-620 colon
LOX IMVI melanoma = tested on: LOX IMVI melanoma
TK-10 renal = tested on: TK-10 renal
NCI-H23 lung = tested on: NCI-H23 lung
UACC-257 melanoma = tested on: UACC-257 melanoma
CCRF-CEM leukemia = tested on: CCRF-CEM leukemia
A498 renal = tested on: A498 renal
RPMI-8226 leukemia = tested on: RPMI-8226 leukemia
BT-549 breast = tested on: BT-549 breast
MALME-3M melanoma = tested on: MALME-3M melanoma
NCI-H522 lung = tested on: NCI-H522 lung
RXF 393 renal = tested on: RXF 393 renal
NCI-H226 lung = tested on: NCI-H226 lung
SK-MEL-2 melanoma = tested on: SK-MEL-2 melanoma
NCI/ADR-RES ovarian = tested on: NCI/ADR-RES ovarian
M14 melanoma = tested on: M14 melanoma
HCT-116 colon = tested on: HCT-116 colon
OVCAR-3 ovarian = tested on: OVCAR-3 ovarian
SF-295 CNS = tested on: SF-295 CNS
HS 578T breast = tested on: HS 578T breast
MOLT-4 leukemia = tested on: MOLT-4 leukemia

CC(=O)c1ccc(NC(=O)CSc2nnc(-c3cc(-c4ccc(C)cc4)nc4ccccc34)o2)cc1
GI50 (MCF7 breast): 2.69 µM | TGI (MCF7 breast): > 100 µM | GI50 (HL-60(TB) leukemia): > 100 µM | TGI (HL-60(TB) leukemia): > 100 µM | GI50 (UACC-62 melanoma): 24.2 µM | TGI (UACC-62 melanoma): > 100 µM | GI50 (HCT-15 colon): 4.95 µM | TGI (HCT-15 colon): > 100 µM | GI50 (SN12C renal): 2.15 µM | TGI (SN12C renal): 5.45 µM | GI50 (OVCAR-5 ovarian): 6.01 µM | TGI (OVCAR-5 ovarian): > 100 µM | GI50 (EKVX NSCLC): 3.13 µM | TGI (EKVX NSCLC): > 100 µM | GI50 (DU-145 prostate): 4.52 µM | TGI (DU-145 prostate): > 100 µM | GI50 (UO-31 renal): 1.75 µM | TGI (UO-31 renal): 4.5 µM | GI50 (SNB-75 CNS): 1.77 µM | TGI (SNB-75 CNS): 3.57 µM | GI50 (SF-539 CNS): 1.8 µM | TGI (SF-539 CNS): 3.92 µM | GI50 (K-562 leukemia): 3.15 µM | TGI (K-562 leukemia): > 100 µM | GI50 (SNB-19 CNS): 3.87 µM | TGI (SNB-19 CNS): 19.3 µM | GI50 (SK-MEL-28 melanoma): > 100 µM | TGI (SK-MEL-28 melanoma): > 100 µM | GI50 (COLO 205 colon): 6.54 µM | TGI (COLO 205 colon): > 100 µM | GI50 (HOP-92 NSCLC): 2.59 µM | TGI (HOP-92 NSCLC): 6.3 µM | GI50 (SK-MEL-5 melanoma): 3.42 µM | TGI (SK-MEL-5 melanoma): > 100 µM | GI50 (U251 CNS): 1.97 µM | TGI (U251 CNS): 3.92 µM | GI50 (786-0 renal): 1.61 µM | TGI (786-0 renal): 3.51 µM | GI50 (PC-3 prostate): 4.36 µM | TGI (PC-3 prostate): > 100 µM | GI50 (NCI-H460 lung): 2.36 µM | TGI (NCI-H460 lung): 6.04 µM | GI50 (SF-268 CNS): 3.12 µM | TGI (SF-268 CNS): > 100 µM | GI50 (A549 NSCLC): 3.01 µM | TGI (A549 NSCLC): > 100 µM | GI50 (SK-OV-3 ovarian): 2.64 µM | TGI (SK-OV-3 ovarian): 8.22 µM | GI50 (IGROV1 ovarian): 3.31 µM | TGI (IGROV1 ovarian): > 100 µM | GI50 (HCC-2998 colon): > 100 µM | TGI (HCC-2998 colon): > 100 µM | GI50 (HOP-62 NSCLC): 2.08 µM | TGI (HOP-62 NSCLC): 5.7 µM | GI50 (MDA-MB-231 breast): 2.3 µM | TGI (MDA-MB-231 breast): 5.47 µM | GI50 (OVCAR-8 ovarian): 2.28 µM | TGI (OVCAR-8 ovarian): 4.9 µM | GI50 (SW-620 colon): 3.24 µM | TGI (SW-620 colon): > 100 µM | GI50 (LOX IMVI melanoma): 2.64 µM | TGI (LOX IMVI melanoma): 9.09 µM | GI50 (TK-10 renal): 1.99 µM | TGI (TK-10 renal): 4.89 µM | GI50 (NCI-H23 lung): 3.73 µM | TGI (NCI-H23 lung): 61.3 µM | GI50 (UACC-257 melanoma): > 100 µM | TGI (UACC-257 melanoma): > 100 µM | GI50 (CCRF-CEM leukemia): 4.03 µM | TGI (CCRF-CEM leukemia): > 100 µM | GI50 (A498 renal): 2.3 µM | TGI (A498 renal): 7.5 µM | GI50 (RPMI-8226 leukemia): 3.37 µM | TGI (RPMI-8226 leukemia): > 100 µM | GI50 (BT-549 breast): 2.44 µM | TGI (BT-549 breast): 7.89 µM | GI50 (MALME-3M melanoma): 2.67 µM | TGI (MALME-3M melanoma): 8.34 µM | GI50 (NCI-H522 lung): 2.39 µM | TGI (NCI-H522 lung): 9.06 µM | GI50 (RXF 393 renal): 2.01 µM | TGI (RXF 393 renal): 4.26 µM | GI50 (NCI-H226 lung): 2.39 µM | TGI (NCI-H226 lung): 6.37 µM | GI50 (SK-MEL-2 melanoma): 12.3 µM | TGI (SK-MEL-2 melanoma): 31.2 µM | GI50 (NCI/ADR-RES ovarian): 3.14 µM | TGI (NCI/ADR-RES ovarian): > 100 µM | GI50 (M14 melanoma): 5.65 µM | TGI (M14 melanoma): > 100 µM | GI50 (HCT-116 colon): 2.25 µM | TGI (HCT-116 colon): 6.1 µM | GI50 (OVCAR-3 ovarian): 3.22 µM | TGI (OVCAR-3 ovarian): > 100 µM | GI50 (SF-295 CNS): 2.18 µM | TGI (SF-295 CNS): 6.08 µM | GI50 (HS 578T breast): 4.06 µM | TGI (HS 578T breast): 39.4 µM | GI50 (MOLT-4 leukemia): 3.31 µM | TGI (MOLT-4 leukemia): > 100 µM
